The results in this text go back to paper PMC9591056, “Inhibitors of ApiAP2 protein DNA binding exhibit multistage activity against Plasmodium parasites” (PLOS Pathogens, 2022).

Series [1] has as its target T1, PfSIP2 D1 (Plasmodium falciparum, UniProt C6KSN9).
T1 construct: gene PF3D7_0604100
T1 sequence (C6KSN9 1729-1788 limits assumed): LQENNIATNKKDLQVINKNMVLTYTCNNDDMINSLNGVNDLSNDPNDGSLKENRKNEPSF
Nature of the series: competitive EMSA, inhibition of DNA binding. As to conditions: 300 uM compound; cognate biotinylated dsDNA probe; 10 mM Tris pH 7.5, 50 mM KCl, 6 mM MgCl2. For orientation: Mobility shift assays separate free from complexed probe on a gel.

The target in series [2] is T2, AP2-I D3 (Plasmodium falciparum, UniProt Q8IJW6).
T2 construct: gene PF3D7_1007700
Nature of the series: competitive EMSA, inhibition of DNA binding. As to conditions: 300 uM compound; cognate biotinylated dsDNA probe; 10 mM Tris pH 7.5, 50 mM KCl, 6 mM MgCl2.

For series [3], the target named is T3, PbAP2-Sp (Plasmodium berghei, UniProt A0A509ASL1).
T3 construct: gene PBANKA_1329800
T3 sequence (A0A509ASL1 175-230 limits assumed): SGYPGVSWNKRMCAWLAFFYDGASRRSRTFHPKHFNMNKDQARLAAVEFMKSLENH
Put plainly: competitive EMSA, inhibition of DNA binding. As to conditions: 300 uM compound; cognate biotinylated dsDNA probe; 10 mM Tris pH 7.5, 50 mM KCl, 6 mM MgCl2.

Series [4] has as its target T4, AP2-HS D1 (Plasmodium falciparum, UniProt C0H5G5).
T4 construct: gene PF3D7_1342900
T4 sequence (C0H5G5 2363-2413 limits assumed): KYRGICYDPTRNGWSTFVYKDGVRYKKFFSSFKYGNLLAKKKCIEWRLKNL
Put plainly: competitive EMSA, inhibition of DNA binding. As to conditions: 300 uM compound; cognate biotinylated dsDNA probe; 10 mM Tris pH 7.5, 50 mM KCl, 6 mM MgCl2.

The target in series [5] is T5, AP2-EXP AP2 domain (Plasmodium falciparum, UniProt Q8IKH2).
T5 construct: gene PF3D7_1466400
T5 sequence (Q8IKH2 63-123): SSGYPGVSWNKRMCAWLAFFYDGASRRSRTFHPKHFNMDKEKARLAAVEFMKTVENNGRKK
Nature of the series: competitive EMSA, inhibition of DNA binding. As to conditions: 300 uM compound, biotinylated cognate dsDNA probe, 10 mM Tris pH 7.5, 50 mM KCl, 6 mM MgCl2.

Series [6] addresses AP2-EXP AP2 domain (Plasmodium falciparum, UniProt Q8IKH2 64-118). Put plainly: EMSA; 300 uM Compound D; EMSA: 10 mM Tris pH 7.5, 50 mM KCl, 1 mM DTT, 6 mM MgCl2, 60 ng/uL poly dIdC, 65 ng BSA; 125 ng AP2-EXP or PbAP2-Sp, 40-150 fmol probe; 15 min protein + compound, then 5 min with DNA; temperature not stated. As to conditions: protein: recombinant; (expressed as in cited work); label: 5' biotin on forward strand; blunt.

Series [7] deals with AtERF1 AP2/ERF domain (Arabidopsis thaliana, UniProt O80337 147-205). Put plainly: EMSA; 300 uM Compound A; EMSA: 10 mM Tris pH 7.5, 50 mM KCl, 1 mM DTT, 6 mM MgCl2, 60 ng/uL poly dIdC, 65 ng BSA; 125 ng AP2-EXP or PbAP2-Sp, 40-150 fmol probe; 15 min protein + compound, then 5 min with DNA; temperature not stated. As to conditions: protein: recombinant; (pGex4t-1); label: 5' biotin on forward strand; blunt.
Sequence of AtERF1 AP2/ERF domain (O80337 147-205): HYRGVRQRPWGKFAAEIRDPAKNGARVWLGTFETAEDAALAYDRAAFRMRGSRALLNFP

T2 sequence (Q8IJW6 entry or part of it): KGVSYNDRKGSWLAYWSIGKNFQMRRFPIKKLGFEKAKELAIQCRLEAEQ

In the case of `CCc1ccc(-c2nc3cc(NC(=O)c4ccc([N+](=O)[O-])o4)ccc3o2)cc1` [B, Compound B], the “competitive EMSA, inhibition of DNA binding” value (“competitive EMSA, inhibition” below) in series [1] is “Compounds B, C and I prevent DNA binding by PfSIP2 D1 (S5C Fig)”; in series [2], “Compounds A, B, C, and I can prevent DNA binding by AP2-I D3”; in series [3], “Compounds B and C block PbAP2-Sp DNA binding in vitro”; in series [4], “Compounds B and I prevent DNA binding by AP2-HS D1 (S5B Fig)”.

With `Cc1cccc(-c2nc3cc(NC(=O)c4ccc([N+](=O)[O-])o4)ccc3o2)c1` [B-4, Compound B-4], the “competitive EMSA, inhibition” value in series [2] is “prevent DNA binding by AP2-EXP (Fig 2A) and AP2-I D3 (S7A Fig)”; in series [5] (also titrated at 25, 50 and 150 uM) it was “Compounds B-1 and B-4 prevent DNA binding by AP2-EXP (Fig 2A)”.

With `Cc1ccc(-c2nc3cc(NC(=O)c4ccc([N+](=O)[O-])o4)ccc3o2)cc1Cl` [B-1, Compound B-1], the “competitive EMSA, inhibition” value in series [2] is “prevent DNA binding by AP2-EXP (Fig 2A) and AP2-I D3 (S7A Fig)”; in series [5] it was “Compounds B-1 and B-4 prevent DNA binding by AP2-EXP (Fig 2A)”.

B1: AP2-EXP gel shift probe (dsDNA)
DNA 1: ACTACACACCTAACTATGCATGCATCAATATAGTGGATTA
DNA 2: TAATCCACTATATTGATGCATGCATAGTTAGGTGTGTAGT
Consider B1, for which the binding result in series [6] was “binds”.

B2: AtERF1 gel shift probe (dsDNA)
DNA 1: TTTAACTTTAATTATGAATATGAGGCGGCGGGTTCGTGATCAAC
DNA 2: GTTGATCACGAACCCGCCGCCTCATATTCATAATTAAAGTTAAA
B2: the binding result in series [7] is reported as “binds”.
